Laboratory results: patent publication US10428044B2, “3-amino-1,5,6,7-tetrahydro-4H-indol-4-ones” (Bayer Pharma Aktiengesellschaft, priority 2014, dated 2019)
Structures can show the parent of a compound that is named as a salt.

Target: (recombinant) catalytic domain of human Bub1 (amino acids 704-1085) (Homo sapiens (Human), UniProt O43683)
Assay: Bub1 kinase assay (TR-FRET)
Type: biochemical
Details: ATP 10 μM final, peptide substrate 1 μM final, 60 min at 22° C., read-out: Biological Assay: Bub1 kinase assay median IC50
Procedure, shortened: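 Readout was TR-FRET between a Eu-labeled antibody complex recognizing phosphoserine and streptavidin-XL665 on the biotinylated peptide, after EDTA stop and 1 h at 22° C. The kinase reaction ran for 60 min at 22° C. Values are means or medians of repeat tests, from 4-parameter fits normalized to enzyme-free and inhibitor-free controls.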

(recombinant) catalytic domain of human Bub1 (amino acids 704-1085), sequence (O43683 704-1085): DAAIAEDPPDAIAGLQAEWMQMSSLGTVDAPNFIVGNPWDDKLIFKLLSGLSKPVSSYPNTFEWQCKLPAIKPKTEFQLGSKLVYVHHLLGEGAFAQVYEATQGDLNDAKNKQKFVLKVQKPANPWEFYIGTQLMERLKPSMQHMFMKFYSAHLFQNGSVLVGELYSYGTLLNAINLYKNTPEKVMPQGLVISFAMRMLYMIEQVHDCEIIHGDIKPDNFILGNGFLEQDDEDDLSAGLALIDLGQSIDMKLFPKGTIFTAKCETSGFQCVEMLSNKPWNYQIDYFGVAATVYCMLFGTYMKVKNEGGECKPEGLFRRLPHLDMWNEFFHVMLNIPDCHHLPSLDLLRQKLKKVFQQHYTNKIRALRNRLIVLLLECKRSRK

Compound | IC50
CC1(C)CC(=O)c2c([nH]c(-c3ccncc3)c2Nc2ccc3occc3c2)C1 [Example 67, 3-(1-benzofuran-5-ylamino)-6,6-dimethyl-2-(pyridin-4-yl)-1,5,6,7-tetrahydro-4H-indol-4-one] | 87.1 nM
O=C1CCCc2[nH]c(-c3ccncc3Cl)c(Nc3ccc(F)cc3)c21 [Example 142, 2-(3-chloropyridin-4-yl)-3-[(4-fluorophenyl)amino]-1,5,6,7-tetrahydro-4H-indol-4-one] | 68.5 nM
CC1(C)CC(=O)c2c([nH]c(-c3ccncc3)c2Nc2cc(F)cc(Cl)c2)C1 [Example 19, 3-[(3-chloro-5-fluorophenyl)amino]-6,6-dimethyl-2-(pyridin-4-yl)-1,5,6,7-tetrahydro-4H-indol-4-one] | 19.5 nM
O=C1CC(C(F)(F)F)Cc2[nH]c(-c3ccncc3)c(Nc3ccccc3)c21 (single isomer, unassigned) [Example 441, 3-(phenylamino)-2-(pyridin-4-yl)-6-(trifluoromethyl)-1,5,6,7-tetrahydro-4H-indol-4-one] | 5.72 nM
CC1(C)CC(=O)c2c([nH]c(-c3cc(Cl)nc(Cl)c3)c2Nc2ccccc2)C1 [Example 216, 2-(2,6-dichloropyridin-4-yl)-6,6-dimethyl-3-(phenylamino)-1,5,6,7-tetrahydro-4H-indol-4-one] | > 20000 nM
CC1(C)CC(=O)c2c([nH]c(-c3ccncc3)c2Nc2ccc(F)c(C(F)(F)F)c2)C1 [Example 129, 3-{[4-fluoro-3-(trifluoromethyl)phenyl]amino}-6,6-dimethyl-2-(pyridin-4-yl)-1,5,6,7-tetrahydro-4H-indol-4-one] | 447 nM
CC1(C)CC(=O)c2c([nH]c(-c3ccncc3)c2Nc2ccccc2C#N)C1 [Example 146, 2-{[6,6-dimethyl-4-oxo-2-(pyridin-4-yl)-4,5,6,7-tetrahydro-1H-indol-3-yl]amino}benzonitrile] | 48.2 nM
O=C(NCCCl)Nc1cc(-c2[nH]c3c(c2Nc2ccccc2)C(=O)CCC3)ccn1 [Example 388, 1-(2-chloroethyl)-3-{4-[4-oxo-3-(phenylamino)-4,5,6,7-tetrahydro-1H-indol-2-yl]pyridin-2-yl}urea] | 43.4 nM
CC1(C)CC(=O)c2c([nH]c(-c3ccnc(NCCCCc4ccccc4)c3)c2Nc2ccccc2)C1 [Example 507, 6,6-dimethyl-3-(phenylamino)-2-{2-[(4-phenylbutyl)amino]pyridin-4-yl}-1,5,6,7-tetrahydro-4H-indol-4-one] | 959 nM
CC1(C)CC(=O)c2c([nH]c(-c3ccncc3)c2Nc2cccc(Oc3ccccc3)c2)C1 [Example 421, 6,6-dimethyl-3-[(3-phenoxyphenyl)amino]-2-(pyridin-4-yl)-1,5,6,7-tetrahydro-4H-indol-4-one] | 200 nM
CC1(C)C/C(=N\O)c2c([nH]c(-c3ccncc3)c2Nc2ccccc2)C1 [Example 194, 4-(hydroxyimino)-6,6-dimethyl-N-phenyl-2-(pyridin-4-yl)-4,5,6,7-tetrahydro-1H-indol-3-amine] | 42 nM
CC1(C)CC(=O)c2c(Nc3ccccc3)c(-c3ccncc3)n(CC(N)=O)c2C1 [Example 185, 2-[3-anilino-6,6-dimethyl-4-oxo-2-(pyridin-4-yl)-4,5,6,7-tetrahydro-1H-indol-1-yl]acetamide formic acid salt] | 1300 nM
CC1(C)CC(=O)c2c([nH]c(-c3ccncc3)c2Nc2cccc(C(N)=O)c2)C1 [Example 101, 3-{[6,6-dimethyl-4-oxo-2-(pyridin-4-yl)-4,5,6,7-tetrahydro-1H-indol-3-yl]amino}benzamide] | 507 nM
CC1(C)CC(=O)c2c([nH]c(-c3ccncc3)c2Nc2cnc3ccccc3c2)C1 [Example 66, 6,6-dimethyl-2-(pyridin-4-yl)-3-(quinolin-3-ylamino)-1,5,6,7-tetrahydro-4H-indol-4-one] | 2260 nM
CC1(C)CC(=O)c2c([nH]c(-c3ccncc3)c2Nc2ccc(F)c(CO)c2)C1 [Example 111, 3-{[4-fluoro-3-(hydroxymethyl)phenyl]amino}-6,6-dimethyl-2-(pyridin-4-yl)-1,5,6,7-tetrahydro-4H-indol-4-one] | 2630 nM
O=C1CC2(CCC2)Cc2[nH]c(-c3ccncc3)c(Nc3ccccc3)c21 [Example 13, 3′-(phenylamino)-2′-(pyridin-4-yl)-1′,7′-dihydrospiro[cyclobutane-1,6′-indol]-4′(5′H)-one] | 6.55 nM
CC1(C)CC(=O)c2c([nH]c(-c3ccnc(Cl)c3F)c2Nc2ccccc2)C1 [Example 219, 2-(2-chloro-3-fluoropyridin-4-yl)-6,6-dimethyl-3-(phenylamino)-1,5,6,7-tetrahydro-4H-indol-4-one] | 12.2 nM
CC1(C)CC(=O)c2c([nH]c(-c3ccncc3)c2Nc2ccccc2Cl)C1 [Example 61, 3-[(2-chlorophenyl)amino]-6,6-dimethyl-2-(pyridin-4-yl)-1,5,6,7-tetrahydro-4H-indol-4-one] | 68.5 nM
CC1(C)CC(=O)c2c([nH]c(-c3ccncc3)c2Nc2cccc(Cl)c2F)C1 [Example 94, 3-[(3-chloro-2-fluorophenyl)amino]-6,6-dimethyl-2-(pyridin-4-yl)-1,5,6,7-tetrahydro-4H-indol-4-one] | 114 nM
CC1(C)CC(=O)c2c([nH]c(-c3ccnc(NCCC(F)(F)F)c3)c2Nc2ccccc2)C1 [Example 362, 6,6-dimethyl-3-(phenylamino)-2-{2-[(3,3,3-trifluoropropyl)amino]pyridin-4-yl}-1,5,6,7-tetrahydro-4H-indol-4-one] | 392 nM
CCOc1cc(F)ccc1Nc1c(-c2ccncc2)[nH]c2c1C(=O)CC(C)(C)C2 [Example 125, 3-[(2-ethoxy-4-fluorophenyl)amino]-6,6-dimethyl-2-(pyridin-4-yl)-1,5,6,7-tetrahydro-4H-indol-4-one] | 454 nM
CC1(C)CC(=O)c2c([nH]c(-c3ccncc3)c2Nc2cccc(-c3ccco3)c2)C1 [Example 419, 3-{[3-(furan-2-yl)phenyl]amino}-6,6-dimethyl-2-(pyridin-4-yl)-1,5,6,7-tetrahydro-4H-indol-4-one] | 11.8 nM

Now from value to compound:

IC50 | Compound
6.63 nM | CC1(C)CC(=O)c2c([nH]c(-c3ccnc(NC(=O)c4cscn4)c3)c2Nc2ccccc2)C1 [Example 272, N-{4-[6,6-dimethyl-4-oxo-3-(phenylamino)-4,5,6,7-tetrahydro-1H-indol-2-yl]pyridin-2-yl}-1,3-thiazole-4-carboxamide]
13.9 nM | O=C(Cc1cccs1)Nc1cc(-c2[nH]c3c(c2Nc2ccccc2)C(=O)CCC3)ccn1 [Example 290, N-{4-[4-oxo-3-(phenylamino)-4,5,6,7-tetrahydro-1H-indol-2-yl]pyridin-2-yl}-2-(thiophen-2-yl)acetamide]
12.1 nM | O=C1CCCc2[nH]c(-c3ccncc3)c(Nc3ccccc3)c21 [Example 9, 3-(phenylamino)-2-(pyridin-4-yl)-1,5,6,7-tetrahydro-4H-indol-4-one]
4.61 nM | CC(=O)Nc1cc(-c2[nH]c3c(c2Nc2ccccc2)C(=O)CC(CCl)C3)ccn1 (stereo not drawn) [Example 444, N-{4-[6-(chloromethyl)-4-oxo-3-(phenylamino)-4,5,6,7-tetrahydro-1H-indol-2-yl]pyridin-2-yl}acetamide]
11.2 nM | Cn1cc(C(=O)Nc2cc(-c3[nH]c4c(c3Nc3ccccc3)C(=O)CCC4)ccn2)cn1 [Example 447, 1-methyl-N-{4-[4-oxo-3-(phenylamino)-4,5,6,7-tetrahydro-1H-indol-2-yl]pyridin-2-yl}-1H-pyrazole-4-carboxamide]
10.6 nM | O=C(COCc1ccccn1)Nc1cc(-c2[nH]c3c(c2Nc2ccccc2)C(=O)CCC3)ccn1 [Example 495, N-{4-[4-oxo-3-(phenylamino)-4,5,6,7-tetrahydro-1H-indol-2-yl]pyridin-2-yl}-2-(pyridin-2-ylmethoxy)acetamide]
113 nM | O=C(NCc1ccco1)Nc1cc(-c2[nH]c3c(c2Nc2ccccc2)C(=O)CCC3)ccn1 [Example 384, 1-(furan-2-ylmethyl)-3-{4-[4-oxo-3-(phenylamino)-4,5,6,7-tetrahydro-1H-indol-2-yl]pyridin-2-yl}urea]
29.4 nM | O=C(Nc1cc(-c2[nH]c3c(c2Nc2ccccc2)C(=O)CCC3)ccn1)c1ccccn1 [Example 269, N-{4-[4-oxo-3-(phenylamino)-4,5,6,7-tetrahydro-1H-indol-2-yl]pyridin-2-yl}pyridine-2-carboxamide]
3320 nM | O=C1CCCc2[nH]c(-c3ccnc(NCCc4ccccc4)c3)c(Nc3ccccc3)c21 [Example 489, 3-(phenylamino)-2-{2-[(2-phenylethyl)amino]pyridin-4-yl}-1,5,6,7-tetrahydro-4H-indol-4-one]
21.6 nM | O=C(Cc1cc[nH]c1)Nc1cc(-c2[nH]c3c(c2Nc2ccccc2)C(=O)CCC3)ccn1 [Example 286, N-{4-[4-oxo-3-(phenylamino)-4,5,6,7-tetrahydro-1H-indol-2-yl]pyridin-2-yl}-2-(1H-pyrrol-3-yl)acetamide]
36.1 nM | O=C1CCCc2[nH]c(-c3ccncc3)c(Nc3ccccn3)c21 [Example 503, 2-(pyridin-4-yl)-3-(pyridin-2-ylamino)-1,5,6,7-tetrahydro-4H-indol-4-one]
29.9 nM | O=C(CC1CC1)Nc1cc(-c2[nH]c3c(c2Nc2ccccc2)C(=O)CCC3)ccn1 [Example 231, 2-cyclopropyl-N-{4-[4-oxo-3-(phenylamino)-4,5,6,7-tetrahydro-1H-indol-2-yl]pyridin-2-yl}acetamide]
19.1 nM | O=C(Nc1cc(-c2[nH]c3c(c2Nc2ccccc2)C(=O)CCC3)ccn1)c1cccc(F)c1 [Example 265, 3-fluoro-N-{4-[4-oxo-3-(phenylamino)-4,5,6,7-tetrahydro-1H-indol-2-yl]pyridin-2-yl}benzamide]
19.2 nM | O=C(Nc1cc(-c2[nH]c3c(c2Nc2ccccc2)C(=O)CCC3)ccn1)c1cc(F)cc(F)c1 [Example 452, 3,5-difluoro-N-{4-[4-oxo-3-(phenylamino)-4,5,6,7-tetrahydro-1H-indol-2-yl]pyridin-2-yl}benzamide]
